Columns and labels:
[1] = system: HCT116 p53^+/+ colon cancer cell line; test: MTT cytotoxicity assay, HCT116 p53+/+; format: cell-based; settings: Homo sapiens, HCT-116, 72 h exposure
Text: (§1) The human breast cancer cell line MDA-MB-435 and the colon cancer cell line HT29 were purchased from the American Type Cell Culture (Manassas, Va.). Colon cancer cell lines HCT116 p53^+/+ and HCT116 p53^−/− were kindly provided by Dr. Bert Vogelstein (Johns Hopkins Medical Institutions, Baltimore, Md.). The human ovarian carcinoma cell line (HEY), naturally resistant to cisplatin (CDDP), was kindly provided by Dr. Louis Dubeau (USC Norris Cancer Center). The bladder cancer cell lines were kindly provided by Dr. Richard Cote (USC Keck School of Medicine). Cells were maintained as monolayer cultures in the appropriate media: RPMI-1640 (HT29, HCT116 p53^+/+, HCT116 p53^−/−, and HEY cell lines) or DMEM (MDA-MB-435 and UMUC3 cell lines) supplemented with 10% fetal bovine serum (FBS) (HyClone, Road Logan, Utah) at 37° C. in a humidified atmosphere of 5% CO2. To remove the adherent cells from the flask for subculture and counting, cells were washed with PBS without calcium or magnesium, incubated with a small volume of 1×trypsin-EDTA solution (Sigma-Aldrich, St. Louis, Mo.) for 5 min, resuspended with fresh culture medium, and centrifuged at 1200 rpm for 5 min. All experiments were performed using cells in exponential growth phase. Cells were routinely checked for Mycoplasma contamination using PlasmaTest kit (InvivoGen, San Diego, Calif.).
(§2) Cytotoxicity was assessed by MTT assay as described previously. 43 In brief, cells were seeded in 96-well microtiter plates and allowed to attach overnight. Cells were subsequently treated with continuous exposure to corresponding drugs for 72 h. At the end of treatments, an MTT solution (at a final concentration of 0.5 mg/mL) was added to each well, and cells were incubated for 4 h at 37° C. After removal of the supernatant, DMSO was added, and the absorbance was read at 570 nm. All assays were done in triplicate. The IC50 was then determined for each drug from a plot of log(drug concentration) versus percentage of cells killed.

[2] = system: HEY ovarian cancer cell line; test: Cytotoxicity assay, HEY; format: cell-based; settings: Homo sapiens
Text: as §1, §2

[3] = system: doxorubicin-resistant NCI/ADR-RES ovarian cancer cell line; test: Cytotoxicity assay, NCI/ADR-RES; format: cell-based; settings: Homo sapiens
Experimental: as §2

[4] = system: 5637 bladder cancer cell line; test: MTT cytotoxicity assay, 5637; format: cell-based, human; settings: Homo sapiens, 72 h exposure
Text: as §1, §2

[5] = Pharmacokinetics study after i.p. administration; format: in vivo, mice; settings: mouse, ip
Experimental: To assess the efficacy, tolerability, and pharmacokinetics of these novel compounds following i.p. administration, the pharmacokinetic profile of compounds 4 and 9 was evaluated (Table 3). Mice were treated with compounds 4 and 9 via i.p. injection and serial blood sampling was determined at indicated times after administration. The plasma concentration was determined using a validated liquid chromatography mass spectrometry (LC-MS) method where the lowest level of quantification was 1 ng/mL. One hour following i.p. administration of compounds 4 and 9, their concentrations in the blood were 344 and 6.2 ng/mL, respectively. […] The half-lives of compounds 4 and 9 via i.p. administration were determined to be approximately 3.5 and 9.3 hours, respectively, when a non-compartmental pharmacokinetics analysis was used. The favorable pharmacokinetics profile of compounds 4 and 9 is consistent with the ADMET predictions described previously.
Preliminary pharmacokinetics of compounds 4 and 9 were performed using 18 mice, each time point consisting of two mice. Mice were stratified to various doses given as an i.p. injection of compounds 4 and 9 (24 mg/kg). At the specified time points following drug administration, blood was collected with heparinized syringes. The samples were allowed to settle in 500 μL eppendorf vials and then centrifuged at 1500 rpm for 10 min. The plasma was removed, transferred into new eppendorf tube, and frozen at −80° C. until analysis.

[6] = system: HT29 colon cancer cell line; test: MTT cytotoxicity assay, HT29; format: cell-based; settings: Homo sapiens, HT-29, 72 h exposure
Text: as §1, §2

[7] = system: MDA-MB-435 breast cancer cell line; test: MTT cytotoxicity assay, MDA-MB-435; format: cell-based, human; settings: for IC50: 72 h exposure
Text: as §1, §2

[8] = system: HCT116 p53^−/− colon cancer cell line; test: MTT cytotoxicity assay, HCT116 p53-/-; format: cell-based; settings: Homo sapiens, HCT-116, 72 h exposure
Text: as §1, §2

[9] = system: UMUC3 bladder cancer cell line; test: MTT cytotoxicity assay, UMUC3; format: cell-based; settings: Homo sapiens, 72 h exposure
Text: as §1, §2

MDA-MB-435 cells = test: Mitochondrial superoxide production (MitoSOX Red); format: cell-based, human
Experimental: After drug treatments, a solution of 5 μM MitoSOX Red mitochondrial superoxide indicator (Invitrogen, Carlsbad, Calif.) was added, and cells were incubated for 10 min at 37° C. Cells were then washed three times with Hank's balanced salt solution (HBSS) to remove excess MitoSOX. After washing, cells were either observed under the fluorescence microscope or collected by trypsinization, washed twice with HBSS, and measured for superoxide production using a BD LSRII flow cytometer (BD Biosciences, San Jose, Calif., USA). Data were analyzed with the BD FACSDiva software package (BD Biosciences, San Jose, Calif., USA).

[10] = system: OVCAR8 ovarian cancer cell line; test: In vitro cytotoxicity, OVCAR8; format: cell-based; settings: Homo sapiens, OVCAR-8; Table 4, ovarian cancer panel
Experimental: as §2

[11] = system: OVCAR3 ovarian cancer cell line; test: In vitro cytotoxicity, OVCAR3; format: cell-based; settings: Homo sapiens, OVCAR-3; Table 4, ovarian cancer panel
Experimental: as §2

Structure (SMILES) | IC50 [10] | IC50 ([3]; Table 4, ovarian cancer panel) | IC50 [11] | also measured
C#CC(=O)N(c1ccc(-n2cnnn2)c(C)c1)C(C(=O)NC1CCCC1)c1ccccc1 (stereo not drawn) [Compound 9, N-[2-(Cyclopentylamino)-2-oxo-1-phenylethyl]-N-[3-methyl-4-(1Htetraazol-1-yl)phenyl]Propynamide] | – | – | – | IC50 [1]: 7200 ± 200 nM; IC50 ([2]; MTT, 72 h exposure (Table 2)): 1900 ± 300 nM; IC50 ([3]; MTT, 72 h exposure (Table 2)): 1000 ± 700 nM; IC50 [4]: 400 ± 100 nM; AUC ([5]; in vivo, 24 mg/kg): 124.9 ng·h/mL; Cmax ([5]; in vivo, 24 mg/kg): 6.2 ng/mL; Tmax ([5]; in vivo, 24 mg/kg): 5 h; half-life ([5]; in vivo, 24 mg/kg): ~9.3 h; t1/2 ([5]; in vivo, 24 mg/kg): 9.3 h; concentration at 1 h ([5]; plasma, mice, 24 mg/kg i.p., 1 hour, read-out: concentration in the blood one hour following i.p. administration): 6.2 ng/mL; IC50 [6]: 1500 ± 1100 nM; cytotoxic potency in MDA-MB-435 cells [7]: most potent analogue; IC50 [7]: 600 ± 300 nM; IC50 ([7]; Homo sapiens, MDA-MB-435, 72 h): 600 to 6300 nM; IC50 [8]: 5700 ± 900 nM; IC50 [9]: 7800 ± 1800 nM
C#CC(=O)N(c1ccccc1)C(C(=O)NC1CCCCC1)c1cccs1 (stereo not drawn) [Compound 18, N[2-(Cyclohexylamino)-2-oxo-1-thien-2-ylethyl]-N-phenyl Propynamide] | – | – | – | IC50 [1]: 14000 nM; IC50 ([2]; MTT, 72 h exposure (Table 2)): > 10000 nM; IC50 ([3]; MTT, 72 h exposure (Table 2)): 1300 ± 400 nM; IC50 [4]: 3500 ± 1400 nM; IC50 [6]: > 10000 nM; IC50 ([7]; Homo sapiens, MDA-MB-435, 72 h): > 10000 nM; IC50 [8]: > 20000 nM; intensity of MitoSOX staining, fluorescence microscopy (MDA-MB-435 cells; 24 hours): remarkably enhanced the intensity of MitoSOX staining; mitochondrial superoxide production, flow cytometry (MDA-MB-435 cells; IC50 or 3×IC50, 24 hours): induce significant amounts of superoxide; IC50 [9]: > 20000 nM
C#CC(=O)N(c1ccc(-n2cnnn2)c(C)c1)C(C(=O)NC1CCCC1)c1ccc(F)cc1 (stereo not drawn) [Compound 21] | 2200 nM | 520 nM | 3100 nM | IC50 ([2]; Table 4, ovarian cancer panel): 310 nM
C#CC(=O)N(c1ccc(-n2cnnn2)c(C)c1)C(C(=O)NC1CCCC1)c1ccc(F)c(F)c1 (stereo not drawn) [Compound 22] | 1500 nM | 320 nM | 2500 nM | IC50 ([2]; Table 4, ovarian cancer panel): 330 nM
C#CC(=O)N(c1ccc(-n2cnnn2)c(C)c1)C(C(=O)NC1CCCC1)c1cccc(F)c1 (stereo not drawn) [Compound 23] | 1500 nM | 2000 nM | 250 nM | IC50 ([2]; Table 4, ovarian cancer panel): 720 nM
C#CC(=O)N(c1ccc(C(N)=O)cc1)C(C(=O)NC1CCCC1)c1ccccc1 (stereo not drawn) [Compound 34] | 1200 nM | 2500 nM | 2500 nM | –
C#CC(=O)N(c1cc(OC)cc(OC)c1)C(C(=O)NC1CCCCC1)c1ccc(OC)c(O)c1 (stereo not drawn) [Compound 35] | 2900 nM | 5500 nM | 7500 nM | –
C#CC(=O)NCC(=O)N(c1ccc(OC)cc1OC)C(C(=O)NC1CCCC1)c1cccs1 (stereo not drawn) [Compound 36] | 3100 nM | 8500 nM | 2300 nM | –
C#CC(=O)NCCC(=O)N(c1ccc(OC)cc1OC)C(C(=O)NC1CCCC1)c1cccs1 (stereo not drawn) [Compound 37] | 1500 nM | 9000 nM | 2300 nM | –
C#CC(=O)N(c1ccc(OC)cc1OC)C(C(=O)NCC(=O)OCC)c1cccs1 (stereo not drawn) [Compound 38] | 2800 ± 700 nM | 2600 ± 1500 nM | 320 nM | –
C#CC(=O)N(c1ccc(OC)cc1OC)C(C(=O)NCC(=O)O)c1cccs1 (stereo not drawn) [Compound 39] | 6000 nM | 8000 nM | > 10000 nM | –
C#CC(=O)N(CC(=O)NCC(=O)OCC)c1ccc(OC)cc1OC [Compound 43] | 2200 nM | 140 nM | 300 nM | –
C#CC(=O)N(CC(=O)NCC(=O)OCC)c1ccc(-n2cnnn2)c(C)c1 [Compound 44] | > 10000 nM | 6300 nM | > 10000 nM | –
CC(=O)O[C@H]1C(=O)[C@@]2(C)[C@H]([C@H](OC(=O)c3ccccc3)[C@]3(O)C[C@H](OC(=O)[C@H](O)[C@@H](NC(=O)c4ccccc4)c4ccccc4)C(C)=C1C3(C)C)[C@]1(OC(C)=O)CO[C@@H]1C[C@@H]2O [paclitaxel, reference compound] | – | – | – | mitochondrial superoxide, fluorescence microscopy (MDA-MB-435 cells; 1.5 μM): only induced a minor amount of mitochondrial superoxide

Source: patent publication US20130071328A1, “Propynoic Acid Carbamoyl Methyl-Amides and Pharmaceutical Compositions and Methods Based Thereon” (UNIVERSITY OF SOUTHERN CALIFORNIA, priority 2011, published 2013)
